In brackets after ≈: the same amount, converted by molar mass. Where two headings read alike, the source gives them in different places.
What was measured:
Assay type in all cases: cell-based
[1] = tested on: Staphylococcus aureus ATCC 12600; test: Antibacterial broth microdilution assay (MIC), methicillin-sensitive S. aureus ATCC 12600; settings: Staphylococcus aureus, read-out: MIC ATCC 12600
Experimental: (§1) These 24 DHP analogues were then screened for inhibition of Staphylococcus aureus growth using microdilution assays. Growth inhibition was examined in methicillin-sensitive S. aureus (ATCC 12600) and two strains of MRSA (ATCC 33591 and ATCC 43300). Antibiotic controls were included in the screen, including carbenicillin, erythromycin, gentamycin, trimethoprim, and vancomycin, and minimum inhibitory concentrations (MICs) were determined for each compound, which were defined as the concentration required to inhibit >95% of bacterial growth (Table 1).
(§2) Antibacterial Microdilution Assay (MIC Determination)
(§3) 1240 The MIC determination assays were performed in a BSL-2 laboratory with appropriate security and biosafety measures. The MICs were determined using a broth microdilution assay closely following the guidelines of the Clinical and Laboratories Standards Institute (CLSI). MICs were determined in duplicate for two biological replicates using 2-fold serial dilutions of test compounds or commercial antibiotics in cation-adjusted Mueller-Hinton broth. The central 60 wells of 96-well plates were 1245 prepared with the compound of interest at the indicated concentration, where 2 µL of the compound in DMSO were added prior to the addition of the culture. Overnight cultures of the different Staphylococcus aureus strains were diluted to provide an initial inoculum of approximately 5 X 10 5 CFU/mL that was delivered to each well in 198 µL of culture (final DMSO concentration of ~1%). Initial inoculum concentrations were verified by plating to count CFU/mL. Each plate was equipped with 1250 experimental controls for full growth (6 wells) and full growth inhibition (6 wells), and all control wells were in the presence of 1% DMSO. The outer 36 wells were filled with 200 µL of culture each to prevent growth effects on the interior 60 wells. The plates were incubated at 37 °C for 18 hours, at which time they were removed from the incubator and were allowed to equilibrate to room temperature for 30 minutes. Absorbance of each well at 600 nm was then read using a microplate reader to 1255 determine the MIC, and visual confirmation of growth inhibition was also performed. If variation was seen in the experimental values, the highest value of two independent trials was listed.

[2] = tested on: Staphylococcus aureus ATCC 43300 (MRSA); test: Antibacterial broth microdilution assay (MIC), MRSA ATCC 43300; settings: Staphylococcus aureus, 18 h, read-out: MIC ATCC 43300
Experimental: as §1, §2, §3

[3] = tested on: Staphylococcus aureus ATCC 33591 (MRSA); test: Antibacterial broth microdilution assay (MIC), MRSA ATCC 33591; settings: Staphylococcus aureus, 18 h, read-out: MIC ATCC 33591
Experimental: as §1, §2, §3

Staphylococcus aureus = test: S. aureus growth inhibition (all three strains or strain not specified); settings: for MIC: Staphylococcus aureus, read-out: concentration inhibiting S. aureus growth (MIC); for antibacterial potency of alkynyl esters compared to their ethyl variants: MIC comparison, Table 3
Experimental: as §1, §2, §3

[4] = ATCC12600, amount inhibiting >95% of growth (A600), 18 h, suffix 'I' = partial growth inhibition at the value, >95% at higher concentrations
[5] = amount inhibiting >95% of growth (A600), suffix 'I' = partial growth inhibition at the value, >95% at higher concentrations

| SMILES | MIC [1, 4] | MIC [2, 5] | MIC [3, 5] | other results |
| --- | --- | --- | --- | --- |
| CCOC(=O)C1=C(c2ccc(C3(C(F)(F)F)N=N3)cc2)NC(N)=NC1c1cc(Cl)cc(Cl)c1 (stereo not shown) [26b] | 4 µg/mL (≈ 8.03 µM) | 4 µg/mL (≈ 8.03 µM) | – | – |
| CCOC(=O)C1=C(c2ccccc2)NC(N)=NC1c1cc(C)cc(C)c1 (stereo not shown) [6q] | > 64 µg/mL | > 64 µg/mL | > 64 µg/mL | – |
| CCOC(=O)C1=C(c2ccccc2)NC(N)=NC1c1cccc([N+](=O)[O-])c1 (stereo not shown) [6b] | 64 µg/mL (≈ 175 µM) | – | – | – |
| CCOC(=O)C1=C(c2ccccc2)NC(N)=NC1c1ccccc1F (stereo not shown) [6f] | > 64 µg/mL | > 64 µg/mL | > 64 µg/mL | – |
| CCOC(=O)C1=C(CC)NC(N)=NC1c1ccc(-c2ccccc2)cc1 (stereo not shown) [7d] | – | – | 8 µg/mL (≈ 22.9 µM) | – |
| CN[C@H](CC(C)C)C(=O)N[C@H]1C(=O)N[C@@H](CC(N)=O)C(=O)N[C@H]2C(=O)N[C@H]3C(=O)N[C@H](C(=O)N[C@H](C(=O)O)c4cc(O)cc(O)c4-c4cc3ccc4O)[C@H](O)c3ccc(c(Cl)c3)Oc3cc2cc(c3O[C@@H]2O[C@H](CO)[C@@H](O)[C@H](O)[C@H]2O[C@H]2C[C@](C)(N)[C@H](O)[C@H](C)O2)Oc2ccc(cc2Cl)[C@H]1O [vancomycin, reference compound] | – | – | – | MIC ([1]; ATCC12600, 18 h): 2 µg/mL (≈ 1.38 µM); MIC (Staphylococcus aureus): 2 µg/mL (≈ 1.38 µM); MIC [2]: 2 µg/mL (≈ 1.38 µM); MIC [3]: 2 µg/mL (≈ 1.38 µM) |
| C#CCCCOC(=O)C1=C(c2ccccc2)NC(N)=NC1c1cc(Cl)cc(Cl)c1 (stereo not shown) [26f] | 4 µg/mL (≈ 9.34 µM) | 4 µg/mL (≈ 9.34 µM) | – | antibacterial potency of alkynyl esters compared to their ethyl variants (Staphylococcus aureus): 2-fold increased potency |
| CCOC(=O)C1=C(c2ccccc2)NC(N)=NC1c1ccc(C(F)(F)F)cc1 (stereo not shown) [6e] | 16 µg/mL (≈ 41.1 µM) | 16 µg/mL (≈ 41.1 µM) | 16 µg/mL (≈ 41.1 µM) | – |
| CCOC(=O)C1=C(c2ccccc2)NC(N)=NC1c1ccc(C)c(C)c1 (stereo not shown) [6p] | – | 32 µg/mL (≈ 91.6 µM) | – | – |
| CC[C@H]1OC(=O)[C@H](C)[C@@H](O[C@H]2C[C@@](C)(OC)[C@@H](O)[C@H](C)O2)[C@H](C)[C@@H](O[C@@H]2O[C@H](C)C[C@H](N(C)C)[C@H]2O)[C@](C)(O)C[C@@H](C)C(=O)[C@H](C)[C@@H](O)[C@]1(C)O [erythromycin, reference compound] | 0.5 µg/mL (≈ 0.681 µM) | > 512 µg/mL | > 512 µg/mL | – |
| CCOC(=O)C1=C(c2cccc(C)c2)NC(N)=NC1c1ccc(CC(C)C)cc1 (stereo not shown) [7j] | 4 µg/mL (≈ 10.2 µM) | 4 µg/mL (≈ 10.2 µM) | 4 µg/mL (≈ 10.2 µM) | – |
| CCOC(=O)C1=C(c2ccccc2)NC(N)=NC1c1c(C)cccc1C (stereo not shown) [6n] | – | – | 64 µg/mL (≈ 183 µM) | – |
| CCOC(=O)C1=C(c2ccccc2)NC(N)=NC1c1ccc(C)cc1 (stereo not shown) [6m] | > 64 µg/mL | > 64 µg/mL | > 64 µg/mL | – |
| C#CCCOC(=O)C1=C(c2ccccc2)NC(N)=NC1c1cc(Cl)cc(Cl)c1 (stereo not shown) [26d] | 16 µg/mL (≈ 38.6 µM) | 16 µg/mL (≈ 38.6 µM) | – | antibacterial potency of alkynyl esters compared to their ethyl variants (Staphylococcus aureus): 2-fold decreased potency |
| O=Cc1ccc(C2(C(F)(F)F)N=N2)cc1 [compound 25] | > 64 µg/mL | > 64 µg/mL | – | MIC (Staphylococcus aureus; all three S. aureus strains or strain not specified): > 64 µg/mL |

Reference: article PMC11247627, “Evaluation of Antibacterial Functionalized Dihydropyrimidine Photoaffinity Probes Toward Mechanism of Action Studies” (ACS Medicinal Chemistry Letters, 2024)
